Activity calls are given as the source filed them. No cut-off for these calls is given here.
Assays:
[1] = (§1) Cytotoxicity against human PANC1 cells assessed as cell viability after 24 hrs by WST8 assay; format: functional, PANC-1
PANC-1 [2] = test: as §1; format: functional
PANC-1 [3] = test: Induction of apoptosis in human PANC1 cells at 50 uM after 24 hrs by Annexin V/propidium iodide staining-based fluorescence microscopy; format: functional, cell-based
PANC-1 [4] = test: Induction of apoptosis in human PANC1 cells grown in glucose deprived medium after 24 hrs by phase contrast microscopy; format: functional, cell-based
PANC-1 [5] = test: Induction of apoptosis in human PANC1 cells at 50 uM after 24 hrs by phase contrast microscopy; format: functional, cell-based
PANC-1 [6] = test: Induction of apoptosis in human PANC1 cells grown in glucose/amino acid deprived medium after 24 hrs by phase contrast microscopy; format: functional, cell-based

Structure (SMILES)	PC50 [1] [µM]	Activity (PANC-1 [2])	Activity (PANC-1 [3])	Activity (PANC-1 [4])	Activity (PANC-1 [5])	Activity (PANC-1 [6])
COc1c(OC)c(OC)c2c(=O)c3c(O)cc(O)c(OC)c3oc2c1O	>100	Dose-dependent effect				
O=c1c2ccc(O)c(O)c2oc2cccc(O)c12	>100	Dose-dependent effect				
COc1cc(O)c2c(=O)c3c(OC)c(O)ccc3oc2c1OC	87.4	Dose-dependent effect				
COc1cccc(O)c1C(=O)O	>100	Dose-dependent effect				
COc1c(O)cc2oc3ccccc3c(=O)c2c1O	81.2	Dose-dependent effect				
COc1cc(OC)c2c(=O)c3ccc(O)c(O)c3oc2c1	>100	Dose-dependent effect				
COc1ccc2oc3ccc(O)c(OC)c3c(=O)c2c1O	51.4	Dose-dependent effect				
COc1cc(O)c2c(=O)c3c(OC)cc(OC)cc3oc2c1	>100	Dose-dependent effect				
COc1cc(O)c2c(=O)c3cc(O)ccc3oc2c1	>100	Dose-dependent effect				
COc1c(OC)c(O)c2c(=O)c3c(OC)cc(O)c(OC)c3oc2c1OC	17.4	Dose-dependent effect	Active	Dose-dependent effect	inactive	
COc1cc(O)c2c(=O)c3c(OC)c(OC)c(OC)c(O)c3oc2c1OC	>100	Dose-dependent effect				
COc1cc2oc3cccc(OC)c3c(=O)c2cc1OC	>100	Dose-dependent effect				
CC(=O)O[C@H]1C(=O)[C@@]2(C)[C@H]([C@H](OC(=O)c3ccccc3)[C@]3(O)C[C@H](OC(=O)[C@H](O)[C@@H](NC(=O)c4ccccc4)c4ccccc4)C(C)=C1C3(C)C)[C@]1(OC(C)=O)CO[C@@H]1C[C@@H]2O [PACLITAXEL]	>100					
COc1c(O)ccc(C(=O)c2ccccc2)c1O	>100	Dose-dependent effect				
COc1cc(C[C@H]2C(=O)OC[C@@H]2Cc2ccc(OC)c(OC)c2)ccc1O [ARCTIGENIN]	0.5					
COc1cc(OC)c(C(=O)c2ccccc2)cc1OC	>100	Dose-dependent effect				
COc1cc(O)c2c(=O)c3c(OC)c4c(c(OC)c3oc2c1OC)OCO4	78.1	Dose-dependent effect				
COc1c(O)cccc1C(=O)OCc1ccccc1	>100	Dose-dependent effect				
COc1ccc2oc3cc(O)cc(OC)c3c(=O)c2c1OC	>100	Dose-dependent effect				
COc1c(C(=O)c2ccccc2)ccc2c1OCO2	>100	Dose-dependent effect				
COc1ccc2oc3cccc(O)c3c(=O)c2c1	42.7	Dose-dependent effect				
COc1cccc(O)c1C(=O)OCc1ccccc1	>100	Dose-dependent effect				
COc1cc(OC)c2c(=O)c3c(OC)c(OC)ccc3oc2c1OC	93.6	Dose-dependent effect				
COc1cc(OC)c2c(=O)c3ccc(O)c(OC)c3oc2c1	93.1	Dose-dependent effect				
COc1cc(OC)c2c(=O)c3c(OC)c(O)ccc3oc2c1	>100	Dose-dependent effect				
COc1c(OC)c(O)c2c(=O)c3c(O)cc(O)c(OC)c3oc2c1OC	22.7	Dose-dependent effect	Active		inactive	Dose-dependent effect
COc1c(O)ccc(C(=O)c2ccccc2)c1OC	81.3	Dose-dependent effect				
COc1cccc(C(=O)c2ccc(O)cc2O)c1	>100	Dose-dependent effect				
O=c1c2ccc(O)cc2oc2cccc(O)c12	>100	Dose-dependent effect				
COc1cc(O)c2c(=O)c3c(OC)c(OC)ccc3oc2c1OC	73.3	Dose-dependent effect				

Source: ChEMBL document CHEMBL3091440, “Heptaoxygenated xanthones as anti-austerity agents from Securidaca longepedunculata” (2013)
